In one assay the test system is Kv3.4. Kind of assay: Ion channel selectivity screen, voltage-clamp, heterologous expression in Xenopus laevis oocytes and/or COS cells. Type of assay: cell-based. The following applies: 1 μM PhlTx1.
The subject of the next assay is para/tipE. Kind of assay: Two-electrode voltage-clamp on Xenopus laevis oocytes expressing insect Nav channel para/tipE. The following applies: 1 µM; voltage of maximum sodium influx, holding −90 mV; oocytes TEVC; n ≥ 3. Type of assay: cell-based, Fruit fly. The text has this:
(§1) Using the two-electrode voltage-clamp technique on Xenopus laevis oocytes, the effect of PhlTx1 was also compared on eight different cloned vertebrate Nav channels co-expressed with the β1 subunit (Nav1.1-1.8/β1) and on the neuronal insect Nav channel, para, co-expressed with the tipE subunit (Figure 3 and Figure 4). […] Normalized current-voltage relationships (I-V curve) of Nav1.2/β1 and Nav1.3/β1 channels seemed to be shifted towards more negative potentials when PhlTx1 was applied, but shifts were not statistically significant […] (Figure 4). The activation phase of the other studied Nav channel subtypes was not affected. No obvious alteration in channel availability was observed, except a 5-mV negative shift for Nav1.3/β1, although that was also non-significant (p > 0.05).
(§2) Figure 4 1 µM of PhlTx1 was tested on Nav1.1/β1, Nav1.2/β1, Nav1.3/β1, Nav1.4/β1, Nav1.5/β1, Nav1.6/β1, Nav1.8/β1 and para/tipE (n ≥ 3). Left column: current traces were evoked by a 50-ms depolarization to the voltage of maximum sodium influx, depending on the Nav studied, from a holding potential of −90 mV. At 1 µM PhlTx1, all studied Nav channels, except Nav1.4/β1, were blocked for about 10% (no toxin: *). The current of Nav1.4/β1 was reduced for about 35 ± 5%. Middle column: normalized I-V curves reveal no significant shift of the activation voltage (p > 0.05). […]
Background: Two-electrode voltage clamp holds a large cell at a set potential and records current.

A further assay concerns Nav1.1/β1. Kind of assay: Two-electrode voltage-clamp on Xenopus laevis oocytes expressing Nav1.1/β1. The settings on record: 1 µM; voltage of maximum sodium influx, holding −90 mV; oocytes TEVC; n ≥ 3. In kind it is cell-based.
Source text: as §1, §2

For a further assay, the system named is Nav1.2/β1. Briefly: Two-electrode voltage-clamp on Xenopus laevis oocytes expressing Nav1.2/β1. Type of assay: cell-based. The settings on record: 1 µM; voltage of maximum sodium influx, holding −90 mV; oocytes TEVC; n ≥ 3.
Source text: as §1, §2

The test system of the next assay is Nav1.3/β1. Kind of assay: Two-electrode voltage-clamp on Xenopus laevis oocytes expressing Nav1.3/β1. Type of assay: cell-based.
Source text: as §1, §2

Structures are written as SMILES. Bridge positions count the residues as written; N and C are the ends. Peptide text beside a SMILES is read from it.

`CC(C)C[C@@H]1NC(=O)[C@@H](NC(=O)[C@H](C)N)CSSC[C@@H]2NC(=O)[C@@H]3CSSC[C@@H](C(=O)N[C@@H](CCCNC(=N)N)C(=O)N[C@@H](Cc4ccc(O)cc4)C(=O)N[C@@H](CCCCN)C(=O)N[C@@H](CC(C)C)C(=O)N[C@@H](Cc4ccccc4)C(=O)O)NC(=O)[C@H](Cc4c[nH]c5ccccc45)NC(=O)[C@@H]4CCCN4C(=O)[C@H](Cc4ccc(O)cc4)NC(=O)[C@H](CCCCN)NC(=O)[C@H](Cc4c[nH]c5ccccc45)NC(=O)[C@H](CCC(=O)O)NC(=O)[C@H](CSSC[C@H](NC(=O)[C@H](CO)NC(=O)[C@H](CC(=O)O)NC(=O)[C@H](Cc4c[nH]c5ccccc45)NC(=O)[C@H](CCC(N)=O)NC(=O)CNC1=O)C(=O)N[C@@H](CC(=O)O)C(=O)N1CCC[C@H]1C(=O)N[C@@H](CCCCN)C(=O)N[C@@H](C)C(=O)N[C@@H](CO)C(=O)N[C@@H](CCCCN)C(=O)N3)NC(=O)[C@H](C)NC(=O)[C@H](Cc1ccc(O)cc1)NC(=O)[C@H](CC(N)=O)NC(=O)[C@@H]1CCCN1C2=O` [PhlTx1, Phlotoxin-1] (H-ACLGQWDSCDPKASKCCPNYACEWKYPWCRYKLF-OH; disulfide 2-17, 9-22, 16-29; N-terminus and C-terminus assumed): the “current inhibition at the voltage of maximum ion flux” value in the assay on Kv3.4 is about 20%. Besides, the “block of sodium current” value is reported as “about 10%” in the assay on para/tipE; “about 10%” in the assay on Nav1.1/β1; “about 10%” with Nav1.2/β1; “about 10%” in the assay with Nav1.3/β1 (1 µM, voltage of maximum sodium influx, holding −90 mV, oocytes TEVC, n ≥ 3). For the same compound, the “negative shift in channel availability” value in the assay on Nav1.3/β1 (1 µM PhlTx1, non-significant (p > 0.05)) is on record as 5 mV.

(Values after article PMC6628435, “Chemical Synthesis, Proper Folding, Nav Channel Selectivity Profile and Analgesic Properties of the Spider Peptide Phlotoxin 1” (Toxins, 2019).)
